Laboratory results published in patent US20240082212A1, “USE OF MDMA FOR TREATMENT OF STRESS-RELATED DISORDERS” (priority 2022, published 2024).

Assays:
[1] = tested on: cortical neurons; assay: Neurite outgrowth in embryonic rat cortical neuron cultures; assay type: cell-based; details: any tested concentration (0.001 to 10000 nM), 3 days, vs vehicle
Text: Female Wistar rats of 17 days gestation were killed by cervical dislocation and the fetuses (typically 6 to 8 in number) were removed from the uteri. Fetal brains were placed in ice-cold medium of Leibovitz (L15, Gibco, France). Cortex was dissected and meninges were carefully removed. The cortical neurons were dissociated by trypsinization (trypsin-EDTA, Gibco) in the presence of DNAse I (Roche, France). The reaction was stopped by addition of Dulbecco's Modified Eagle Medium (DMEM; Gibco) with 10% of fetal bovine serum (FBS; Gibco). The suspension was triturated with a 10-ml pipette and a 21-gauge needle syringe and centrifuged. The pellet of dissociated cells was resuspended in a medium consisting of Neurobasal (Gibco) supplemented with 2% B27 supplement (Gibco), 0.5 mM L-Glutamine (Gibco), and an antibiotic-antimycotic mixture. Viable cells were counted in a Neubauer cytometer and cells were seeded in 96-well plates (Costar) precoated with poly-L-lysine at 10,000 cells/well. […] Stock solutions were prepared in sterile water at 10 mM and stored at −20° C. until used. Further dilutions were prepared in culture in the medium on the day of the treatment. 0.1% Sterile water was present in all tested conditions.
The experimental protocol was performed in two independent cultures (i.e., from two different pregnant rats). For each culture, each condition was tested in sextuplet (6 wells per condition per culture for a total of 12 wells per condition). […] After three days of plating and compound treatment (Day 3), cultures were fixed with paraformaldehyde in phosphate buffered saline at 4° C. (PBS, 4%, Sigma). All subsequent steps were performed at room temperature. Cells were successively permeabilized for 30 minutes using 0.1% triton, saturated with PBS containing 3% bovine serum albumin (BSA) and incubated for 1 hour with anti-beta III tubulin antibody (T5168, Sigma). […] Finally, nuclei were stained with 4′-6-diamidino-2-phenylindole (DAPI). After rinsing the cells with PBS, the plate was imaged and neurite networks were examined and analyzed using a High-Content Screening platform (CellInsight CXS, Thermo Scientific) with integrated Photometrics high-resolution fluorescent camera, Olympus objective (10×) and HCS Studio Cell Analysis Software. Approximately 2,000 neurons per well were analyzed using a validated cortex neuron outgrowth algorithm that utilizes parameters optimized for analysis of embryonic rat cortical neuron cultures. The HCS Studio Cell Analysis Software output included values for neurite total count (#), neurite total length (μm) and total number of branch points (#) for each of the 6 wells per culture. The evaluation of neurite outgrowth was performed using the average number of neurites per neuron (#), the average of total neurite length per neuron (μm) and the average number of branch points per neuron (#) across 12 wells. Data also was transformed to percent (%) of the average vehicle control value. Results were expressed as mean (±s.e.m.) of the transformed (% of vehicle control) data. Statistical analyses were performed on transformed percent of the average vehicle control data for each measure for each test article using one-way analysis of variance (Anova, StatView). Where applicable, Dunnett's test was used for multiple pairwise comparisons to the negative control (vehicle) condition. […] The level of significance was set at p value less than or equal to 0.05 (*p<0.05).

[2] = target: Serotonin 5-HT2B (Homo sapiens, UniProt P41595); assay: Eurofins Panlabs radioligand binding panel, serotonin 5-HT2B; details: 10 uM
Serotonin 5-HT2B, sequence (P41595 whole entry): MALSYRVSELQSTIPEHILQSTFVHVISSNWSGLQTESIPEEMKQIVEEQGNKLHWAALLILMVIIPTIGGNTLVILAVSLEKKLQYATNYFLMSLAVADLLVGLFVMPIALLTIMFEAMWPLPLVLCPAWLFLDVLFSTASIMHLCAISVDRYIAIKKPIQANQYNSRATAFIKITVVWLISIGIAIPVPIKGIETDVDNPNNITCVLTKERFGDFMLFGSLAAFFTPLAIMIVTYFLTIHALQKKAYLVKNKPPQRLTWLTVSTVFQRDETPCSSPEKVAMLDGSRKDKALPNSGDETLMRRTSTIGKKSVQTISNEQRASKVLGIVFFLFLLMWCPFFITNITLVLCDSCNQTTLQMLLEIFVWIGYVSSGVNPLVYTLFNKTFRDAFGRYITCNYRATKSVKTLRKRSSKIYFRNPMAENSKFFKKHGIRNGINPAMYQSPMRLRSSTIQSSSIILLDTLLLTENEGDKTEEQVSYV

In the case of `C[C@H](N)Cc1ccc2c(c1)OCO2` [S-MDA, S(+)-MDA], the “neurite number (#)” value [1] is reported as “did not significantly alter”, the “neurite total length (μm)” value [1] is reported as “did not significantly alter” and the “total number of branch points (#)” value [1] is reported as “did not significantly alter”. The “% inhibition of binding or activity” value [2] was 82%.
